Measurements reported in publication PMC10947197, “Acid‐Resistant BODIPY Amino Acids for Peptide‐Based Fluorescence Imaging of GPR54 Receptors in Pancreatic Islets” (Angewandte Chemie (International Ed. in English), 2023).
One block for each compound: values may come before it. Numbered stars: 1 amine (or outer) side, 2 acyl side, 3 side chain; on linkers, the order of the positions; unused ones are H or OH. Square brackets hold non-standard residues; d marks the D form. Peptide text beside a SMILES is read from it. X1 = CC1=CC(C)=[N+]2C1=C(c1cccc(-c3[nH]c4ccccc4c3C[C@H](N[*:1])C(=O)[*:2])c1)c1c(C)cc(C)n1[B-]2(C#N)C#N

Tests used:
hGPR54 = molecular target: T1, hGPR54 (Homo sapiens, UniProt Q969F8); experiment: Calcium mobilization assay in HEK293 cells stably expressing hGPR54; type: cell-based; settings: HEK293 cells stably expressing hGPR54, 50,000 cells per well, Fluo4 NW Ca2+ assay kit, GraphPad Prism 9 sigmoidal fit; read-out: EC50 (Ca2+ influx, agonist)
T1 construct: expressed in transfected cells

[1] = Stability analysis of Trp-BODIPY FlAAs under SPPS conditions; settings: r.t.; for Stability (purity by HPLC-MS): 70 μM; for Chemical stability (HPLC-MS): 70 µM;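 for all read-outs here: chemical integrity of the BODIPY-labelled tryptophan amino acids checked after exposure to reagents used in solid-phase peptide synthesis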
Description: Next, we studied the stability of Trp‐BODIPY PLUS in TFA and compared it to that of Trp‐BODIPY (Table 2).
Analysis of t he chemical st abilit y of T rp-BO DI PY and T rp-
BODIPY PLUS under conve nt ion al SPPS condit i ons. Amino aci ds were di lut ed w it h
dif f erent rea gent mixt ur es (70 µ M , f inal v olum e 10 0 uL) a nd st irre d at r. t . f or 1 h
( c ondit i ons A-B and E-H) or 5 m i n ( c o ndit i ons C an d D).
Fmoc-T rp -BO DI PY(X)2-OH
En t ry Conditions X = F X = CN

[2] = Integrity of BODIPY core in crude peptides after cleavage with 95% TFA (HPLC-MS); type: physicochemical; settings: crude peptide
Excerpt: To study the application of Trp‐BODIPY PLUS for SPPS of fluorogenic peptides, we first prepared analogues of the model linear sequence KYRAE, which contains a range of non‐polar, positively‐charged and negatively‐charged residues with different PGs (e.g., Boc, tBu, Pbf). We performed the synthesis using standard Fmoc/tBu SPPS conditions (e.g., OxymaPure and 1‐ cyano‐2‐ethoxy‐2‐oxoethylidenaminooxy)dimethylamino‐mor‐pholino‐carbenium hexafluorophosphate (COMU) for couplings, piperidine:DMF (2 : 8) for Fmoc removal) and introduced Trp‐BODIPY PLUS at the N‐terminal end. We performed the cleavage of the labeled peptide (i.e., W(BODIPYplus)KYRAE, peptide 4, Figure 1) with 95 % TFA and compared the purity of the crude to that obtained when using the acid‐labile Trp‐BODIPY (i.e., W(BODIPY)KYRAE, peptide 5, Figure 1). […] Overall, we isolated the model peptide 4 in good yields >20 % and >95 % purity after HPLC purification (see Supporting Information for synthetic and characterization details).

apoptotic cells = settings: ref [10e]; cited from earlier work
Excerpt: Next, we assessed whether incorporation of Trp‐BODIPY PLUS enabled retention of the molecular recognition features of bioactive peptides. […] Because Apo‐15 contains one Trp‐BODIPY residue within its sequence, we synthesized the corresponding analogue using Trp‐BODIPY PLUS as the FlAA.

T1 sequence (Q969F8 whole entry): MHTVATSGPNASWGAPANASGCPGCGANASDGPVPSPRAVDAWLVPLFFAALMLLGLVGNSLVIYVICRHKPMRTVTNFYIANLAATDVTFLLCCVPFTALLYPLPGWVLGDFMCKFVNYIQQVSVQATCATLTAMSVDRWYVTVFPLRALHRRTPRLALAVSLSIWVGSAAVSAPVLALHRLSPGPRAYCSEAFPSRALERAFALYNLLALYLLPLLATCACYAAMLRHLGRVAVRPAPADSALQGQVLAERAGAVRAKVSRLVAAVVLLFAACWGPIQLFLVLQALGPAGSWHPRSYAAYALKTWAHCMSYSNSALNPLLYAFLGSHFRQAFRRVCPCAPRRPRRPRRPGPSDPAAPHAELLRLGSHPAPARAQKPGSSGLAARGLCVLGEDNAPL

Compound: CC(C)C[C@H](NC(=O)CNC(=O)[C@H](Cc1ccccc1)NC(=O)[C@H](CO)NC(=O)[C@H](CC(N)=O)NC(=O)[C@H](Cc1c[nH]c2ccccc12)NC(=O)[C@H](CC(N)=O)NC(=O)[C@@H](N)Cc1ccc(O)cc1)C(=O)N[C@@H](CCCNC(=N)N)C(=O)N[C@@H](Cc1ccccc1)C(N)=O [KP-10, reference compound]
- EC50 (hGPR54): 0.22 nM

Compound: CC1=CC(C)=[N+]2C1=C(c1cccc(-c3[nH]c4ccccc4c3C[C@H](NC(=O)[C@H](CC(N)=O)NC(=O)[C@@H](N)Cc3ccc(O)cc3)C(=O)N[C@@H](CC(N)=O)C(=O)N[C@@H](CO)C(=O)N[C@@H](Cc3ccccc3)C(=O)NCC(=O)N[C@@H](CC(C)C)C(=O)N[C@@H](CCCNC(=N)N)C(=O)N[C@@H](Cc3ccccc3)C(N)=O)c1)c1c(C)cc(C)n1[B-]2(C#N)C#N [peptide 7] (H-YN[X1]NSFGLRF-NH2)
- EC50 (hGPR54): 2.5 nM

Compound: cyclo(GRKKWFW(BODIPY)) (head to tail) [Apo-15]
- Ca2+ dependence of apoptotic cell labelling (in words) (apoptotic cells): independent on the concentration of Ca^2+ ions
- Selective labelling of apoptotic cells (in words) (apoptotic cells): fluorogenic probe for selective labeling of apoptotic cells

Second part, the compound after the results:

- Stability (purity by HPLC-MS) ([1]; 2% N2H4 in DMF, 60 min): > 95%
- Stability (purity by HPLC-MS) ([1]; 95% TFA, 2.5% DTT, 60 min, DCM): < 5%
- Stability (purity by HPLC-MS) ([1]; 95% TFA, 2.5% H2O, 60 min, DCM): < 5%
- Stability (purity by HPLC-MS) ([1]; 95% TFA, 2.5% TIS, 60 min, DCM): < 5%
- Stability (purity by HPLC-MS) ([1]; 95% TFA, 5 min, DCM): < 5%
- Stability (purity by HPLC-MS) ([1]; 95% TFA, 60 min, DCM): < 5%
- Stability (purity by HPLC-MS) ([1]; I2 (5 eq) in MeOH, 60 min): 38%
- Stability (purity by HPLC-MS) ([1]; Pd(PPh3)4 (0.1 eq), PhSiH3 (10 eq), 60 min, DCM): > 95%
- Chemical stability (HPLC-MS) ([1]; Supplementary Table 2 entry A: 1% TFA, 2.5% DTT, 1 h): > 95%
- Chemical stability (HPLC-MS) ([1]; Supplementary Table 2 entry B: 5% TFA, 2.5% DTT, 1 h): 34%
- Chemical stability (HPLC-MS) ([1]; Supplementary Table 2 entry C: 95% TFA, 2.5% DTT, 5 min): 7%
- Chemical stability (HPLC-MS) ([1]; Supplementary Table 2 entry D: 20% piperidine: DMF, 5 min): > 95%
- Chemical stability (HPLC-MS) ([1]; Supplementary Table 2 entry E: 5% NaHCO3 (aq), 1 h): > 95%
- Chemical stability (HPLC-MS) ([1]; Supplementary Table 2 entry F: 5% Na2CO3 (aq), 1 h): > 95%
- Chemical stability (HPLC-MS) ([1]; Supplementary Table 2 entry G: 1% DIPEA: DMF, 1 h): > 95%
- Chemical stability (HPLC-MS) ([1]; Supplementary Table 2 entry H: 0.1 M HOBt: TFE, 1 h): > 95%
- Stability (purity by HPLC-MS) ([1]; TBAF (3 eq), 60 min, DCM): > 95%
Compound: CC1=CC(C)=[N+]2C1=C(c1cccc(-c3[nH]c4ccccc4c3C[C@H](NC(=O)OCC3c4ccccc4-c4ccccc43)C(=O)O)c1)c1c(C)cc(C)n1[B-]2(F)F [Trp-BODIPY, reference compound]

- Stability of BODIPY core after cleavage (in words) [2]: completely degraded
Compound: W(BODIPY)KYRAE [peptide 5, model linear peptide KYRAE with acid-labile Trp-BODIPY at the N-terminal end]

- Stability of BODIPY core after cleavage (in words) [2]: remained fully stable
Compound: W(BODIPYplus)KYRAE [peptide 4, model linear peptide KYRAE with Trp-BODIPY PLUS at the N-terminal end]
